“And” between values parts separate entries of the source, which are not always exact repeats. Identical values can stand only once.
Experiments:
[1] = system: rat bladder smooth muscle strip (detrusor); test: Relaxation of rat bladder strips pre-contracted with 60 mM KCl or 1 μM carbachol (organ bath); type: cell-based; details: for bladder relaxation in vitro, enantiomer compared with racemic blebbistatin mixture: in vitro studies; for relaxation of KCl and CC evoked detrusor contraction: 60 mM KCl or 1 μM CC pre-contraction, maximal pre-contraction = 100%
Procedure: (§1) Experimental materials and methods: All chemical were from Sigma (St. Louis, USA) except (±) blebbistatin (racemic blebbistatin) was from Tocris (Ellisville, Mo.). […] Rat bladder body and aorta were obtained from 17 (275-300 gram) adult male Sprague-Dawley (SD) rats (Charles River; Raleigh, N.C.). All animal studies were approved by the Animal Institute Committee of the Albert Einstein College of Medicine.
In vitro organ bath studies: The in vitro contractility studies were performed as previously described by Zhang X, Kuppam D, Aydin M, Melman A, DiSanto M. “In vitro and in vivo relaxation of corpus cavernosum smooth muscle by the selective myosin II inhibitor, blebbistatin.” J Sex Med 2009; 6:2661-71, Sandhu K S, Chua R G, Zhang X, et al. “Regional heterogeneity in expression of the sphingosine-1-phosphate pathway in the female rat lower urinary tract”; Am J Obstet Gynecol 2009; 200:576-7; Chua R G, Calenda G, Zhang X, et al. “Testosterone regulates erectile function and Vcsal expression in the corpora of rats”; Mol Cell Endocrinol 2009; 303:67-73. Bladder strips were mounted longitudinally and aortic rings horizontally in a 5 ml organ bath—Multi-Myograph Model 810MS (bladder) or Model 610M (aorta) (Danish Myo Technology; Aarhus, Denmark). The myograph was connected in line to a PowerLab 4/30 Data Acquisition System (ADInstruments; Colorado Springs, Colo.) and in turn to a Dual-Core processor Pentium computer for real-time monitoring of physiological force. The smooth muscle strips were equilibrated at least 1 hour in Krebs-Henseleit (Krebs) buffer at 37° C. with continuous bubbling of 95% O2 and 5% CO2 and buffer was changed every 15 minutes (min). Strips were continuously adjusted to resting tension (0.5 g for rat bladder and 1 g for human bladder (Yamamoto M, Harm S C, Grasser W A, Thiede M A. “Parathyroid hormone-related protein in the rat urinary bladder: a smooth muscle relaxant produced locally in response to mechanical stretch.” Proc Natl Acad Sci USA 1992; 89:5326-30. After equilibration, rat detrusor was contracted with 60 mM KCl and the force induced by cumulative concentrations (10-5-10-1 M) of carbachol (CC) or electrical field stimulation (EFS) at varying frequencies of 2-32 Hz, pulse duration 1.5 ms, train 5 s, and 80 V, was normalized to that KCl response. Next, all strips were pre-contracted with 60 mM KCl, or 1 μM CC (rat bladder), or 20 nM endothelin-1 (ET-1) (human bladder) and allowed to reach stable tension and then the relaxant effects of increasing doses of blebbistatin were evaluated. For rat detrusor, after pre-incubation with blebbistatin (10 μM) for 30 min, its inhibitory effect on CC (1 μM) induced contractility or aforementioned EFS mediated contractility was also tested. Additionally, the influence of blebbistatin (10 μM) on rat detrusor spontaneous activity and basal tone was evaluated.

[2] = system: Non-muscle Myosin ATPases; details: single concentration of 100 micromolar; Toth table IV; cited from earlier work
[3] = molecular target: Porcine Cardiac Muscle Myosin II ATPase (Sus scrofa, UniProt P79293); details: single concentration of 100 micromolar; Toth table IV; cited from earlier work
Sequence of Porcine Cardiac Muscle Myosin II ATPase (P79293 whole entry): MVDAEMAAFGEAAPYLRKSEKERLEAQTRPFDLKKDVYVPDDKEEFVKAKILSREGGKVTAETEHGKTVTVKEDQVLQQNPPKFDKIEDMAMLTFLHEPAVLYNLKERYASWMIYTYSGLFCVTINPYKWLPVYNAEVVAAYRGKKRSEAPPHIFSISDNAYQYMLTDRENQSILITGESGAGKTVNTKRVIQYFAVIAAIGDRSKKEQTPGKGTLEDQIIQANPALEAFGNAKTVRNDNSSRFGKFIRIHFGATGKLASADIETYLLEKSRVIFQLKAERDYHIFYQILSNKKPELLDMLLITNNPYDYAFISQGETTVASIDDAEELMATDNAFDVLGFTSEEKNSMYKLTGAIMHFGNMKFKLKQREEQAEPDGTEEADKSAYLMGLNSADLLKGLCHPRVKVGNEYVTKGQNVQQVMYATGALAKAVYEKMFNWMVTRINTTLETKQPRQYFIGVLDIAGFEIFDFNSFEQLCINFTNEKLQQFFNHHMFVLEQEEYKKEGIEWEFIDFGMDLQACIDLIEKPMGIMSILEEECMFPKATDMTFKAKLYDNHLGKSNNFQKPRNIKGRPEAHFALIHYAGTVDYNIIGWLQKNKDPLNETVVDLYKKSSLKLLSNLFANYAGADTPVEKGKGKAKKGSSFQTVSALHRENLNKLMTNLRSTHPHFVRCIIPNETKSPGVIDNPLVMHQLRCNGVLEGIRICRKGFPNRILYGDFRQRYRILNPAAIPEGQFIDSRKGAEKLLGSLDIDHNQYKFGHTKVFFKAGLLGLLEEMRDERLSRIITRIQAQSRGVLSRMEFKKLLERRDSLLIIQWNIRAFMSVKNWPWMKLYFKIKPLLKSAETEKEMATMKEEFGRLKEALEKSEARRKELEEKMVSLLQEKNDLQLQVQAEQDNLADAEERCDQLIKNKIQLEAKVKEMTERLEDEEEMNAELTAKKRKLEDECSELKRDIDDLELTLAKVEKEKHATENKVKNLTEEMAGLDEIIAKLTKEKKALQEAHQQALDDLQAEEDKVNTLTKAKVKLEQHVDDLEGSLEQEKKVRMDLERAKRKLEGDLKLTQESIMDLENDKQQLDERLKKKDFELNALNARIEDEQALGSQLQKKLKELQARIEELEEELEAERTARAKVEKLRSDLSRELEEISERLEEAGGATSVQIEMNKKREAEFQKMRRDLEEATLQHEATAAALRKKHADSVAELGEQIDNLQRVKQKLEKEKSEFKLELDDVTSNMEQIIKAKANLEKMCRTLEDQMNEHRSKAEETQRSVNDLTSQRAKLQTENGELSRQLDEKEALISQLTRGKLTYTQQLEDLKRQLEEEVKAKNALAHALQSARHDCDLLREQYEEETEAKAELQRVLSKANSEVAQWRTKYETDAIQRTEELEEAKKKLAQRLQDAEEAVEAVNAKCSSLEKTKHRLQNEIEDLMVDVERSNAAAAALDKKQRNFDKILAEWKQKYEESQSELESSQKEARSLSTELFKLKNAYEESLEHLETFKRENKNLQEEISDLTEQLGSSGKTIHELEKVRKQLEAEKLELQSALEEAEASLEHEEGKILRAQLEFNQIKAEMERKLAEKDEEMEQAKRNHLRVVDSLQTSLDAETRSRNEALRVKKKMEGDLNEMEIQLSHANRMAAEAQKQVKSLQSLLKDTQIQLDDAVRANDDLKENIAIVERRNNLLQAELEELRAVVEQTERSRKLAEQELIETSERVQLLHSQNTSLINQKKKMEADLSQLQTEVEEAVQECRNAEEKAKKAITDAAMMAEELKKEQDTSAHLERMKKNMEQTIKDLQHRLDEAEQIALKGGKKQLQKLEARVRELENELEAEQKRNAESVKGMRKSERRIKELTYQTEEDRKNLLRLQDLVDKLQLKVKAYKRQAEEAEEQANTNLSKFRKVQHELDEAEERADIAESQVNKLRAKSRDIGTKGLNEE

[4] = molecular target: Myosin II ATPase in pig cardiac muscle (Sus scrofa, UniProt P79293); details: in vitro, read-out: IC50, inhibition of Myosin II ATPase; cited from earlier work
Sequence of Myosin II ATPase in pig cardiac muscle (P79293 whole entry): as above

[5] = system: rat bladder smooth muscle strip (detrusor); test: Pre-incubation with blebbistatin: carbachol-induced rat detrusor contraction; type: cell-based; details: for attenuation of carbachol (CC) responsiveness: pre-incubation 10 μM for 30 min, 1 μM CC
Procedure: as §1
(§2) In vitro organ bath studies: The in vitro contractility studies were performed as previously described by Zhang X, Kuppam D, Aydin M, Melman A, DiSanto M. “In vitro and in vivo relaxation of corpus cavernosum smooth muscle by the selective myosin II inhibitor, blebbistatin.” J Sex Med 2009; 6:2661-71, Sandhu K S, Chua R G, Zhang X, et al. “Regional heterogeneity in expression of the sphingosine-1-phosphate pathway in the female rat lower urinary tract”; Am J Obstet Gynecol 2009; 200:576-7; Chua R G, Calenda G, Zhang X, et al. “Testosterone regulates erectile function and Vcsal expression in the corpora of rats”; Mol Cell Endocrinol 2009; 303:67-73. Bladder strips were mounted longitudinally and aortic rings horizontally in a 5 ml organ bath—Multi-Myograph Model 810MS (bladder) or Model 610M (aorta) (Danish Myo Technology; Aarhus, Denmark). The myograph was connected in line to a PowerLab 4/30 Data Acquisition System (ADInstruments; Colorado Springs, Colo.) and in turn to a Dual-Core processor Pentium computer for real-time monitoring of physiological force. The smooth muscle strips were equilibrated at least 1 hour in Krebs-Henseleit (Krebs) buffer at 37° C. with continuous bubbling of 95% O2 and 5% CO2 and buffer was changed every 15 minutes (min). Strips were continuously adjusted to resting tension (0.5 g for rat bladder and 1 g for human bladder (Yamamoto M, Harm S C, Grasser W A, Thiede M A. “Parathyroid hormone-related protein in the rat urinary bladder: a smooth muscle relaxant produced locally in response to mechanical stretch.” Proc Natl Acad Sci USA 1992; 89:5326-30. After equilibration, rat detrusor was contracted with 60 mM KCl and the force induced by cumulative concentrations (10-5-10-1 M) of carbachol (CC) or electrical field stimulation (EFS) at varying frequencies of 2-32 Hz, pulse duration 1.5 ms, train 5 s, and 80 V, was normalized to that KCl response. Next, all strips were pre-contracted with 60 mM KCl, or 1 μM CC (rat bladder), or 20 nM endothelin-1 (ET-1) (human bladder) and allowed to reach stable tension and then the relaxant effects of increasing doses of blebbistatin were evaluated. […] Additionally, the influence of blebbistatin (10 μM) on rat detrusor spontaneous activity and basal tone was evaluated.

[6] = system: adult mouse bladder smooth muscle; details: 10 uM; tissue depolarized using potassium chloride; cited from earlier work
[7] = molecular target: Non-muscle Myosin IIA ATPase (Homo sapiens, UniProt P35579); details: read-out: IC50, inhibition of Non-muscle Myosin IIA ATPase; cited from earlier work
Sequence of Non-muscle Myosin IIA ATPase (P35579 whole entry): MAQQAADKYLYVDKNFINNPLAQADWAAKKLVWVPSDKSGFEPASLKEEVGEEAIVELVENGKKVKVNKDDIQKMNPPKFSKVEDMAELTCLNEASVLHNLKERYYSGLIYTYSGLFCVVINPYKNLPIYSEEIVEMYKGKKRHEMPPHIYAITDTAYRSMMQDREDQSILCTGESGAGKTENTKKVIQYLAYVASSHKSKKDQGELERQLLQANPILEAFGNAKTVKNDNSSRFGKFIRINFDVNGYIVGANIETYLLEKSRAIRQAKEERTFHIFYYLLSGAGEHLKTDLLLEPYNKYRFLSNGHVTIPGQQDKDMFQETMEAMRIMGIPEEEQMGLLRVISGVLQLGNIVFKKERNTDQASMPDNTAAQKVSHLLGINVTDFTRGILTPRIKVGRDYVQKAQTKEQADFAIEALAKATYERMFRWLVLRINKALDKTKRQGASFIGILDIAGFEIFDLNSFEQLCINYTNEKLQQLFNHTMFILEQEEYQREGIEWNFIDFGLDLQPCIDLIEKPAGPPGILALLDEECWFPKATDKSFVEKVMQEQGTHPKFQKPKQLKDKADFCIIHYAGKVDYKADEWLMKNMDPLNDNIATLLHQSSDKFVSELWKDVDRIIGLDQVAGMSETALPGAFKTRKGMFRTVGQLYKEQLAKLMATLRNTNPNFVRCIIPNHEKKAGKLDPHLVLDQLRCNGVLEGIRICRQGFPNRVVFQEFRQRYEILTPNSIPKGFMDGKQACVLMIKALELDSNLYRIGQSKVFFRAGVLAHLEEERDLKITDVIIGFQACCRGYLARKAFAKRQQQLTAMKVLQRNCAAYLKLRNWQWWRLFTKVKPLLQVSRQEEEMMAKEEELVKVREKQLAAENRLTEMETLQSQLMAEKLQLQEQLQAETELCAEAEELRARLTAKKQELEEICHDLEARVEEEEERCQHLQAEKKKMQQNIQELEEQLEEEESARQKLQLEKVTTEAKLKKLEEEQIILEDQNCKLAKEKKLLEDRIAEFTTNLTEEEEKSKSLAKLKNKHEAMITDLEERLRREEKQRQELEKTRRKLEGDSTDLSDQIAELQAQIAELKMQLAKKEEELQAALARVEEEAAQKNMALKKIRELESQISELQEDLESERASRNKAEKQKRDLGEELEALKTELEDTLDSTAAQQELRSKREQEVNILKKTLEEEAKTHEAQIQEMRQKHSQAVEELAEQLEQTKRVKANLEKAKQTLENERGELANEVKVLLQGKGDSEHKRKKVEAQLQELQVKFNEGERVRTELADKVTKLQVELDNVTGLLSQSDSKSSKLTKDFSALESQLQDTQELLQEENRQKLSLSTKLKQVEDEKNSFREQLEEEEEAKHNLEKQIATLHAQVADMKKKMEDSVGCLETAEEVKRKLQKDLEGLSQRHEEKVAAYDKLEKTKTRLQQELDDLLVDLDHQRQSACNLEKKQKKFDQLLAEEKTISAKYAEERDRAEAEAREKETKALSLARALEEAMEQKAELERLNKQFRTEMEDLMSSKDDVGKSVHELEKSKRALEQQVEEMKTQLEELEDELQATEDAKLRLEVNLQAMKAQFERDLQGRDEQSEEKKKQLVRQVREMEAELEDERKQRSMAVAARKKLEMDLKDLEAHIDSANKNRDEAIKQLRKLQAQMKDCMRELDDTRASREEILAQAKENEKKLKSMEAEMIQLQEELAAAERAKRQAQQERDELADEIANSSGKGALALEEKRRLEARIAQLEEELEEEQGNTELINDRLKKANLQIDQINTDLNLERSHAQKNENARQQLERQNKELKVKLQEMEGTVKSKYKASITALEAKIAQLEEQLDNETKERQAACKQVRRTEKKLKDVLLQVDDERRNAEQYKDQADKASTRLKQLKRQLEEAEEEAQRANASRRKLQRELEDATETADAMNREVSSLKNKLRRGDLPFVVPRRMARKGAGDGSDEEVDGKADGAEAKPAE
Sequence of Non-muscle Myosin IIA ATPase (P60660 whole entry partner): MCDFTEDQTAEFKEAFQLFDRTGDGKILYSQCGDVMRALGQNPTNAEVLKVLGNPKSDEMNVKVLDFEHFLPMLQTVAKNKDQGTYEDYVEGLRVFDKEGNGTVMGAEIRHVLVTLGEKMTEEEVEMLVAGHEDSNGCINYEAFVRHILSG
Sequence of Non-muscle Myosin IIA ATPase (O14950 whole entry partner): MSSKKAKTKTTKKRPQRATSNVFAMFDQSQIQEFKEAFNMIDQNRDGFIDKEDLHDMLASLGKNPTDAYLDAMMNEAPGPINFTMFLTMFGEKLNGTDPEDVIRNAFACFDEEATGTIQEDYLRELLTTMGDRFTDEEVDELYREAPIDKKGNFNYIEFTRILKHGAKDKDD

rat bladder strips = test: Spontaneous contractions and basal tone of rat bladder strips; type: cell-based
Procedure: as §1, §2

[8] = molecular target: Smooth Muscle Myosin II ATPase (turkey smooth muscle); details: in vitro, read-out: IC50, inhibition of Smooth Muscle Myosin II ATPase; cited from earlier work
[9] = molecular target: Myosin II ATPase in rabbit striated skeletal muscle; details: in vitro, read-out: IC50, inhibition of Myosin II ATPase; cited from earlier work
bladder of awake rat = test: Awake rat cystometry (urodynamics) after intravesical blebbistatin; type: in vivo
Procedure: Cystometric evaluation of bladder function was performed as previously described on a separate set of 5 rats. See Malmgren A, Andersson P O, Uvelius B. “Bladder function in rats with short- and long-term diabetes; effects of age and muscarinic blockade” J Urol 1989; 142:1608-14; Melman A, Zotova E, Kim M, et al. “Longitudinal studies of time-dependent changes in both bladder and erectile function after streptozotocin-induced diabetes in Fischer 344 male rats” BJU Int 2009, 104:1292-300; Suadicani S O, Urban-Maldonado M, Tar M T, Melman A, Spray D C. “Effects of ageing and streptozotocin-induced diabetes on connexin43 and P2 purinoceptor expression in the rat corpora cavernosa and urinary bladder” BJU Int 2009; 103:1686-93. Under anesthesia, a PE 50 catheter with a cuff was surgically inserted into the bladder dome and exited through an orifice made in the back of the animal. […] The bladder catheter was connected to a 2-way valve that is, in turn connected to a pressure transducer as well as an infusion pump (model PHD 2000, Harvard Instruments; MA, USA). Rat bladder was infused with vehicle for 30 min and then cystometry was performed. After that, the same rat was treated with 250 nmols blebbistatin for the same period and cystometry was similarly repeated. One rat had bladder over-activity possibly due to post-surgical infection and thus blebbistatin was kept in the bladder for only about 5 min. The rate of infusion of room temperature saline was set at 10 ml/h. Bladder activity was continuously recorded after the first micturition, and subsequently at least 2 h of data were recorded from each rat. Statistical analysis: Results are expressed as mean±SEM for n experiments. Statistical analysis was performed using either the Student's t-test (when two sample treatments were being compared) or using ANOVA when multiple means were compared. p<0.05 was considered significant.
Bladder function was evaluated using the following urodynamic criteria: bladder capacity: (BC=volume of infused saline discharged at micturition); micturition volume (MV=the volume of urine discharged during micturition); residual volume (RV=volume of infused saline minus micturition volume); basal pressure (BP=the lowest average bladder pressure recorded during cystometry); micturition pressure (MP=peak bladder pressure during micturition); Bcom=bladder compliance; MF=micturition frequency; and the * indicates <0.05 vs vehicle.

newborn mouse bladder = details: 10 uM; cited from earlier work
[10] = system: rat bladder smooth muscle strip (detrusor); test: Pre-incubation with blebbistatin: electrical field stimulation-induced rat bladder contraction; type: cell-based; details: pre-incubation 10 μM for 30 min, 32 Hz
Procedure: as §1
In vitro organ bath studies: The in vitro contractility studies were performed as previously described by Zhang X, Kuppam D, Aydin M, Melman A, DiSanto M. “In vitro and in vivo relaxation of corpus cavernosum smooth muscle by the selective myosin II inhibitor, blebbistatin.” J Sex Med 2009; 6:2661-71, Sandhu K S, Chua R G, Zhang X, et al. “Regional heterogeneity in expression of the sphingosine-1-phosphate pathway in the female rat lower urinary tract”; Am J Obstet Gynecol 2009; 200:576-7; Chua R G, Calenda G, Zhang X, et al. “Testosterone regulates erectile function and Vcsal expression in the corpora of rats”; Mol Cell Endocrinol 2009; 303:67-73. […] Next, all strips were pre-contracted with 60 mM KCl, or 1 μM CC (rat bladder), or 20 nM endothelin-1 (ET-1) (human bladder) and allowed to reach stable tension and then the relaxant effects of increasing doses of blebbistatin were evaluated. […]

[11] = system: human bladder smooth muscle strip; test: Relaxation of human bladder (base) strips pre-contracted with 20 nM endothelin-1; type: cell-based; details: for relaxation of human bladder pre-contracted with endothelin-1: 20 nM ET-1; for relaxation/block of endothelin-1 induced human bladder contraction (in words): dose-dependent
Procedure: as §1, §2

[12] = with blebbistatin (10 μM), n = 15 strips from 6 rats
[13] = awake rats, intravesical 250 nmols blebbistatin 30 min, n = 5

CN1[C@@H]2CC[C@H]1C[C@@H](OC(=O)C(CO)c1ccccc1)C2 (stereo partly shown) [atropine]
time needed to relax the muscle strip in vitro in a tissue bath [1]: 3 to 5 min

Cc1ccc2c(c1)C(=O)C1(O)CCN(c3ccccc3)C1=N2 (single isomer, unassigned; (+)) [(+)-blebbistatin]
bladder relaxation in vitro, enantiomer compared with racemic blebbistatin mixture [1]: did not induce significant bladder relaxation

Cc1ccc2c(c1)C(=O)[C@]1(O)CCN(c3ccccc3)C1=N2 [(−)-blebbistatin, (−)-3aS-hydroxy-6-methyl-1-phenyl-1,2,3,3a-tetrahydro-4H-pyrrolo[2,3b] quinolin-4-one]
bladder relaxation in vitro, enantiomer compared with racemic blebbistatin mixture [1]: equipotent | inhibition of Non-muscle Myosin ATPases [2]: inhibited | inhibition of cardiac muscle Myosin ATPase [3]: inhibited

Cc1ccc2c(c1)C(=O)C1(O)CCN(c3ccccc3)C1=N2 (racemic) [blebbistatin, 3a-hydroxy-6-methyl-1-phenyl-1,2,3,3a-tetrahydro-4H-pyrrolo[2,3b]-quinolin-4-one]
IC50 [4]: 1.2 µM | attenuation of carbachol (CC) responsiveness [5]: about 65% | attenuation of carbachol (CC) responsiveness ([5]; listed as BLEB): about 65% | attenuation of carbachol (CC) responsiveness ([5]; listed as racemic blebbistatin): ~65% | lowering of basal tone ([5]; pre-incubation 10 μm for 30 min): around 300 mg | time needed to relax the muscle strip in vitro in a tissue bath [1]: 30 to 60 min | baseline and peak phasic force of contraction (FIG. 3) ([1]; 10 uM, strip pre-contracted with 1 uM carbacol): significant decrease | relaxation of KCl and CC evoked detrusor contraction ([1]; 1 μm): 20-30% | relaxation of KCl and CC evoked detrusor contraction ([1]; 5 μm): 80-100% | relaxation of KCl and carbachol induced rat detrusor contraction (in words) ([1]; dose-dependent, 1-10 μM cumulative): completely relaxed | block of adult mouse bladder smooth muscle contraction [6]: did not block | IC50 [7]: 5.1 µM | decrease in the amplitude of spontaneous smooth muscle contractions (rat bladder strips; 10 am (so in the source)): ~60% | Amplitude of spontaneous contractions (rat bladder strips; [12]): 118 ± 19.33 mg and 120 ± 19 mg | Basal Tone (rat bladder strips; [12]): 310 ± 16 mg | Frequency of spontaneous contractions (rat bladder strips; [12]): 5.5 +/− 1.2 cycles/min | IC50 [8]: 79.6 µM | IC50 [9]: 0.5 µM | BC (bladder capacity) (bladder of awake rat; [13]): 1.4 +/− 0.16 * ml | BP (basal pressure) (bladder of awake rat; [13]): 6.9 +/− 1.8 cm H20 | MF (micturition frequency) (bladder of awake rat; [13]): 7.2 +/− 1.3 * | MP (micturition pressure) (bladder of awake rat; [13]): 42 +/− 13 cmH20 | MV (micturition volume) (bladder of awake rat; [13]): 1.4 +/− 10 * ml | RV (residual volume) (bladder of awake rat; [13]): 0.03 ± 0.01 mL | decline of voiding frequency (bladder of awake rat; rat with overactive bladder (OAB), blebbistatin kept in bladder about 5 min): over 50% | inhibition of bladder contraction of a newborn mouse (newborn mouse bladder): did inhibit | inhibition of EFS-induced bladder contraction [10]: about 50% | inhibition of EFS-induced bladder contraction ([10]; listed as racemic blebbistatin): 50% | relaxation of human bladder pre-contracted with endothelin-1 ([11]; 1 μM): 60% | relaxation of human bladder pre-contracted with endothelin-1 ([11]; 3 am (so in the source)): ~100% | relaxation/block of endothelin-1 induced human bladder contraction (in words) [11]: completely blocked | relaxation/block of endothelin-1 induced human bladder contraction (in words) ([11]; listed as Racemic blebbistatin): completely relaxed
